Laboratory results taken from paper PMC10882135, “Rapid reaction studies on the chemistry of flavin oxidation in urocanate reductase” (The Journal of Biological Chemistry, 2024).

Columns and labels:
[1] = target: T1, UrdA′ (isolated FAD domain of urocanate reductase) (Shewanella oneidensis, UniProt Q8CVD0); experiment: copurification; absorbance spectrum before and after SDS/heat release of FAD; assay type: binding; settings: noncovalent; pH 7
T1 construct: N-terminal FMN domain removed), C-terminal His tag, pET29b, E. coli BL21 (DE3); noncovalent FAD

[2] = target: Arg411 (UniProt position 411, EELERRDVISH); experiment: kinetics (anaerobic stopped-flow spectrophotometry); settings: 4 °C, 100 mM NaCl, 50 mM Bis-Tris propane (pH 6-9) or 50 mM CAPS (pH >9), 10% glycerol, reduced FAD (flavin hydroquinone) enzyme in complex with urocanate, folded (unfolding above pH 10.5 by CD)

T1 sequence (Q8CVD0 130-582): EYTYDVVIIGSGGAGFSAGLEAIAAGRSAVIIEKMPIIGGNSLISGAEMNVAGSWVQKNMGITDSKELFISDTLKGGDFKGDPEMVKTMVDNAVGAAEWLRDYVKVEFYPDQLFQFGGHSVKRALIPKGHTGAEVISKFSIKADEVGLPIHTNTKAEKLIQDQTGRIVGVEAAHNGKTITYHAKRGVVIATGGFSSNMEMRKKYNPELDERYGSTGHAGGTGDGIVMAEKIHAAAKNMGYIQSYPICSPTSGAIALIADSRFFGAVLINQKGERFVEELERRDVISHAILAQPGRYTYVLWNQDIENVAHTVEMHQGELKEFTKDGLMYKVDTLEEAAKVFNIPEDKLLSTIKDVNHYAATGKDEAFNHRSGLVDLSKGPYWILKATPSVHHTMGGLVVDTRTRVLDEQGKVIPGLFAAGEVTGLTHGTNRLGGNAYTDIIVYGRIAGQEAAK

Molecule	copurification; absorbance spectrum before and after SDS/heat release of FAD [1]	pKa [2]
Cc1cc2nc3c(=O)[nH]c(=O)nc-3n(C[C@H](O)[C@H](O)[C@H](O)COP(=O)(O)OP(=O)(O)OC[C@H]3O[C@@H](n4cnc5c(N)ncnc54)[C@H](O)[C@@H]3O)c2cc1C [FAD]	extinction coefficient of FAD bound to the variants was then calculated	
Urocanate reductase, isolated FAD-binding C-terminal domain (UrdA') (Shewanella oneidensis MR-1)		9.4 ± 0.1
